ChEMBL document CHEMBL6121041, “Design and synthesis of isatin derivative payloaded peptide-drug conjugate as tubulin inhibitor against colorectal cancer” (Eur J Med Chem, 2025)
Active and inactive are the calls of the source. The calls are words filed in the database; no cut-off is given here. Residues, ends and D or L forms follow the SMILES beside them. *: point of attachment. X1 = COc1ccc(CN2C(=O)C(=O)c3cc(-c4ccc(OC(=O)CCC(=O)*)cc4)ccc32)cc1

Experiments:
[1] = Cytotoxicity against HK-2 cells assessed as reduction in cell viability incubated for 48 hrs by MTT assay; assay type: toxicity, cell-based; details: human
K562 = experiment: Antiproliferative activity against human K562 cells assessed as reduction in cell viability incubated for 48 hrs by MTT assay; assay type: functional, cell-based; details: K562, 48 h
HepG2 = experiment: Antiproliferative activity against human HepG2 cells assessed as reduction in cell viability incubated for 48 hrs by MTT assay; assay type: functional, cell-based; details: HepG2, 48 h
MGC-803 = experiment: Antiproliferative activity against human MGC-803 cells assessed as reduction in cell viability incubated for 48 hrs by MTT assay; assay type: functional, cell-based; details: MGC-803, 48 h
786-0 = experiment: Antiproliferative activity against human 786-0 cells assessed as reduction in cell viability incubated for 48 hrs by MTT assay; assay type: functional, cell-based; details: 786-0, 48 h
HCT-116 [2] = experiment: Antiproliferative activity against human HCT-116 cells assessed as reduction in cell viability incubated for 48 hrs by MTT assay; assay type: functional, cell-based; details: HCT-116, 48 h
[3] = Cytotoxicity against HUVEC cells assessed as reduction in cell viability incubated for 48 hrs by MTT assay; assay type: toxicity, cell-based; details: human
HCC827 = experiment: Antiproliferative activity against human HCC827 cells assessed as reduction in cell viability incubated for 48 hrs by MTT assay; assay type: functional, cell-based; details: HCC827, 48 h
HCT-116 [4] = experiment: Induction of apoptosis in human HCT-116 cells assessed as morphological changes at 0.4 to 0.8 microM measured after 24 hrs by microscopic analysis; assay type: functional, cell-based; details: dose 0.4-0.8 µM
HCT-116 [5] = experiment: Induction of apoptosis in human HCT-116 cells assessed as increase in caspase-3 activation level at 0.8 uM measured after 24 hrs by Western blot analysis; assay type: functional, cell-based
HCT-116 [6] = experiment: Inhibition of beta-tubulin expression in human HCT-116 cells at 0.8 uM incubated for 24 hrs by Western blot analysis; assay type: functional, cell-based
HCT-116 [7] = experiment: Induction of apoptosis in human HCT-116 cells assessed as cell fragmentation at 0.4 to 0.8 microM measured after 24 hrs by microscopic analysis; assay type: functional, cell-based; details: dose 0.4-0.8 µM
HCT-116 [8] = experiment: Induction of apoptosis in human HCT-116 cells assessed as downregulation of Bcl-2 protein at 0.8 uM measured after 24 hrs by Western blot analysis; assay type: functional, cell-based
HCT-116 [9] = experiment: Inhibition of colony formation in human HCT-116 cells at 0.4 to 0.8 uM measured after 10 days by crystal violet staining based inverted microscopic analysis; assay type: functional, cell-based; details: dose 0.4-0.8 µM, time 10.0 day
HCT-116 [10] = experiment: Cell cycle arrest in human HCT-116 cells assessed as decrease in CDK1 expression at 0.8 uM incubated for 24 hrs by Western blot analysis; assay type: functional, cell-based
HCT-116 [11] = experiment: Induction of apoptosis in human HCT-116 cells assessed as morphological changes at 0.4 to 0.8 microM measured after 48 hrs by microscopic analysis; assay type: functional, cell-based; details: dose 0.4-0.8 µM
HCT-116 [12] = experiment: Induction of apoptosis in human HCT-116 cells assessed as increase in PARP activation level at 0.8 uM measured after 24 hrs by Western blot analysis; assay type: functional, cell-based
HCT-116 [13] = experiment: Cell cycle arrest in human HCT-116 cells assessed as increase in cyclin B1 expression at 0.8 uM incubated for 24 hrs by Western blot analysis; assay type: functional, cell-based
HCT-116 [14] = experiment: Cell cycle arrest in human HCT-116 cells assessed as increase in p21 expression at 0.8 uM incubated for 24 hrs by Western blot analysis; assay type: functional, cell-based
HCT-116 [15] = experiment: Cell cycle arrest in human HCT-116 cells assessed as increase in p53 expression at 0.8 uM incubated for 24 hrs by Western blot analysis; assay type: functional, cell-based
HCT-116 [16] = experiment: Induction of apoptosis in human HCT-116 cells assessed as upregulation of Bax protein at 0.8 uM measured after 24 hrs by Western blot analysis; assay type: functional, cell-based
HCT-116 [17] = experiment: Cell cycle arrest in human HCT-116 cells assessed as accumulation of cells at G2/M phase at 0.4 to 0.8 uM incubated for 24 hrs by PI staining based flow cytometric analysis; assay type: functional; details: dose 0.4-0.8 µM
HCT-116 [18] = experiment: Inhibition of wound closure in human HCT-116 cells at 0.4 uM measured after 48 hrs by wound healing assay; assay type: functional, cell-based
[19] = Toxicity in SPF-grade Balb/c nude mouse xenografted with human HCT-116 cells assessed as average body weight at 33.86 to 45.17 mg/kg, ip measured after 10 days; assay type: organism-based; details: in vivo, 240 h, dose 33.86-45.17 mg/kg, time 10 day
HCT-116 [20] = experiment: Antitumor activity against human HCT-116 cells xenografted in SPF-grade Balb/c nude mouse model assessed as inhibition of tumor cell growth at 33.86 to 45.17 mg/kg, ip administered daily for 11 days by H and E staining based analysis; assay type: functional, organism-based; details: dose 33.86-45.17 mg/kg, time 11.0 day
HCT-116 [21] = experiment: Antitumor activity against human HCT-116 cells xenografted in SPF-grade Balb/c nude mouse model assessed as reduction in tumor size at 33.86 to 45.17 mg/kg, ip administered daily for 11 days by photographic analysis; assay type: functional, organism-based; details: dose 33.86-45.17 mg/kg, time 11.0 day
HCT-116 [22] = experiment: Induction of apoptosis in human HCT-116 cells at 0.4 to 0.8 uM incubated for 24 hrs by Annexin V-FITC/PI staining based flow cytometric analysis; assay type: functional, cell-based; details: dose 0.4-0.8 µM
HCT-116 [23] = experiment: Antitumor activity against human HCT-116 cells xenografted in SPF-grade Balb/c nude mouse model assessed as tumor growth inhibition at 33.86 mg/kg, ip administered daily for 11 days relative to control; assay type: functional; details: HCT-116, 264 h, time 11 day, read-out: TGI

SMILES	IC50 at 48 h [1]	IC50 (K562)	IC50 (HepG2)	IC50 (MGC-803)	IC50 (786-0)	IC50 (HCT-116 [2])	IC50 at 48 h [3]	IC50 (HCC827)	further results
COC(=O)c1ccc(-c2ccc3c(c2)C(=O)C(=O)N3Cc2ccc(OC)cc2)cc1	8.54 µM	2.07 µM	> 100 µM	86.2 µM	138 µM	1.6 µM	81.7 µM	12 µM	
COc1ccc(CN2C(=O)C(=O)c3cc(-c4ccc(CO)cc4)ccc32)cc1	12.6 µM	0.81 µM	> 100 µM	29.2 µM	40.4 µM	0.786 µM	18.8 µM	34.7 µM	
COc1ccc(CN2C(=O)C(=O)c3cc(-c4ccc(C(=O)O)cc4)ccc32)cc1	30.9 µM	> 100 µM	> 100 µM	91.1 µM	87.6 µM	18.7 µM	34.7 µM	4.15 µM	
COc1ccc(CN2C(=O)C(=O)c3cc(-c4ccc(OC)cc4)cc([N+](=O)[O-])c32)cc1	1.21 µM	0.47 µM	> 100 µM	58.2 µM	15.2 µM	0.263 µM	10.6 µM	3.62 µM	
COc1ccc(CN2C(=O)C(=O)c3cc(-c4ccc(SC)cc4)ccc32)cc1	13.4 µM	0.5 µM	71 µM	76.5 µM	30.8 µM	0.728 µM	25 µM	4.15 µM	
COc1ccc(CN2C(=O)C(=O)c3cc(-c4ccc(OC(=O)CCC(=O)NCCCC[C@H](NC(C)=O)C(=O)N5CCC[C@H]5C(=O)N[C@@H](CO)C(=O)N[C@@H](CO)C(=O)N5CCC[C@H]5C(=O)N5CCC[C@H]5C(=O)N[C@@H](CCC(=O)O)C(=O)N[C@@H](CCC(=O)O)C(N)=O)cc4)ccc32)cc1 (Ac-K(X1)PSSPPEE-NH2)						0.23 µM	43 µM		Activity (HCT-116 [4]): Active; Activity (HCT-116 [5]): Active; inhibition (HCT-116 [6]): Active; Activity (HCT-116 [7]): Active; Activity (HCT-116 [8]): Active; inhibition (HCT-116 [9]): Active; Activity (HCT-116 [10]): Active; Activity (HCT-116 [11]): Active; More Evident Apoptotic State Observed; Activity (HCT-116 [12]): Active; Activity (HCT-116 [13]): Active; Activity (HCT-116 [14]): Active; Activity (HCT-116 [15]): Active; Activity (HCT-116 [16]): Active; Activity (HCT-116 [17]): Active; inhibition (HCT-116 [18]): Active; Activity [19]: ~ 10 g; Activity (HCT-116 [20]): Active; Activity (HCT-116 [21]): Active; Activity (HCT-116 [22]): Active; inhibition in vivo at 33.86 mg/kg (HCT-116 [23]): 47%
COc1ccc(CN2C(=O)C(=O)c3cc(-c4ccc(COC(C)=O)cc4)ccc32)cc1	9.02 µM	1.14 µM	6.78 µM	> 100 µM	50.5 µM	2.02 µM	34.7 µM	29.3 µM	
